# Assay results published in the supplement of paper PMC10307832.
# Legend:
# Assay in all cases: relative viability (nuclei count vs DMSO), 5 days (fraction); higher = more cells survive
# BI-2536 + Alpelisib = compound: CC[C@@H]1C(=O)N(C)c2cnc(Nc3ccc(C(=O)NC4CCN(C)CC4)cc3OC)nc2N1C1CCCC1 [BI-2536] + Cc1nc(NC(=O)N2CCC[C@H]2C(N)=O)sc1-c1ccnc(C(C)(C)C(F)(F)F)c1 [Alpelisib] (partner 2 µM)
# How it was run: (§1)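 Dosing by pin tool came one day after lung cancer cell lines were seeded in 1536-well plates, using either one drug or a fixed anchor-drug dose plus five library-drug doses (not always all listed) in √10 steps. After 5 days, nuclei were counted on 4× images. Relative viability is treated-well nuclei count divided by vehicle-well nuclei count, and values are medians of duplicate plates.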
# [1] = compound: CC1CC(=O)N(C2=CN=C(N=C2N1C3CCCC3)NC4=C(C=C(C=C4)C(=O)NC5CCN(CC5)C)OC)C [NPK76-II-72-1] + CC(=O)c1c(C)c2cnc(Nc3ccc(N4CCNCC4)cn3)nc2n(C2CCCC2)c1=O [Palbociclib] (partner 0.5 µM)
# How it was run: as §1
# BI-2536 + Decitabine = compound: CC[C@@H]1C(=O)N(C)c2cnc(Nc3ccc(C(=O)NC4CCN(C)CC4)cc3OC)nc2N1C1CCCC1 [BI-2536] + Nc1ncn([C@H]2C[C@H](O)[C@@H](CO)O2)c(=O)n1 [Decitabine] (partner 2 µM)
# How it was run: as §1
# [2] = compound: CC1CC(=O)N(C2=CN=C(N=C2N1C3CCCC3)NC4=C(C=C(C=C4)C(=O)NC5CCN(CC5)C)OC)C [NPK76-II-72-1] + Nc1nc2[nH]cc(CCc3ccc(C(=O)N[C@@H](CCC(=O)O)C(=O)O)cc3)c2c(=O)[nH]1 [Pemetrexed] (partner 0.2 µM)
# How it was run: as §1
Cell Line,relative viability (BI-2536 + Alpelisib; first compound 0.01 µM),relative viability (BI-2536 + Alpelisib; first compound 0.03162 µM),relative viability (BI-2536 + Alpelisib; first compound 0.1 µM),relative viability (BI-2536 + Alpelisib; first compound 0.3162 µM),relative viability (BI-2536 + Alpelisib; first compound 1 µM),relative viability ([1]; first compound 0.01 µM),relative viability ([1]; first compound 0.03162 µM),relative viability ([1]; first compound 0.1 µM),relative viability ([1]; first compound 0.3162 µM),relative viability ([1]; first compound 1 µM),relative viability (BI-2536 + Decitabine; first compound 0.01 µM),relative viability (BI-2536 + Decitabine; first compound 0.03162 µM),relative viability (BI-2536 + Decitabine; first compound 0.1 µM),relative viability (BI-2536 + Decitabine; first compound 0.3162 µM),relative viability (BI-2536 + Decitabine; first compound 1 µM),relative viability ([2]; first compound 0.01 µM),relative viability ([2]; first compound 0.03162 µM),relative viability ([2]; first compound 0.1 µM),relative viability ([2]; first compound 0.3162 µM),relative viability ([2]; first compound 1 µM)
LK-2,1.14,0.318,0.374,0.222,0.282,0.624,0.636,0.668,0.653,0.565,0.255,0.254,0.134,0.0869,0.137,0.228,0.292,0.334,0.235,0.271
HCC-366,0.469,0.344,0.273,0.0093,0.0141,0.386,0.438,0.386,0.363,0.458,0.407,0.408,0.248,0.036,0.0402,0.127,0.149,0.132,0.138,0.143
BEN,1.05,0.779,0.695,0.261,0.245,0.432,0.478,0.45,0.509,0.48,0.699,0.72,0.429,0.366,0.421,0.794,0.683,0.739,0.755,0.934
NCI-H23,0.734,0.737,0.369,0.139,0.135,0.537,0.504,0.412,0.501,0.6,0.3,0.364,0.244,0.155,0.168,0.52,0.915,0.597,0.71,0.777
NCI-H1395,0.958,0.502,0.43,0.499,0.369,0.627,0.621,0.621,0.661,0.616,0.628,0.509,0.366,0.337,0.345,1.02,0.842,0.972,0.856,0.881
201T,0.997,1.03,0.973,0.441,0.285,0.379,0.385,0.348,0.356,0.364,0.873,0.838,0.815,0.332,0.225,0.344,0.319,0.338,0.324,0.333
NCI-H2170,0.767,0.871,0.402,0.195,0.223,0.395,0.358,0.435,0.285,0.415,0.466,0.471,0.431,0.167,0.181,0.407,0.26,0.269,0.245,0.283
NCI-H460,0.523,0.481,0.0303,0.0093,0.0065,0.157,0.105,0.225,0.121,0.219,0.596,0.486,0.114,0.0205,0.0215,0.061,0.0655,0.0657,0.0656,0.0639
NCI-H661,0.149,0.577,0.619,0.216,0.24,0.424,0.37,0.418,0.346,0.435,0.534,0.424,0.278,0.253,0.265,0.953,0.907,0.893,0.902,0.954
HCC-15,0.835,0.73,0.691,0.142,0.117,0.722,0.849,0.705,0.694,0.745,0.652,0.504,0.246,0.124,0.151,0.214,0.23,0.219,0.225,0.235
LCLC-103H,1.05,0.925,0.929,0.556,0.125,,0.501,0.501,0.565,0.484,0.792,0.749,0.652,0.322,0.333,,0.441,0.425,0.472,0.442
NCI-H441,0.613,0.235,0.148,0.168,0.178,0.232,0.26,0.251,0.205,0.254,0.244,0.247,0.153,0.149,0.149,0.293,0.266,0.246,0.274,0.25
EPLC-272H,0.951,0.758,,0.0883,0.114,0.332,0.339,0.335,0.329,0.369,0.359,0.363,0.258,0.0826,0.131,0.338,0.303,0.303,0.311,0.335
